# Data published in patent US9814727B2, “Piperazine phenothiazine derivatives for treating spasticity” (UNIVERSITE D'AIX-MARSEILLE, priority 2014, dated 2017).
# Experiments:
# [1] = system: KCC2; assay: Western blot of KCC2 in total cell lysate of NSC-34 KCC2 cells; type: cell-based; conditions: 10 μM, 30 min of cell treatment, NSC-34 KCC2 whole cell lysate
# Description: NSC-34 wild type and KCC2 were cultured in DMEM (Life technologies, Carlsbad, Calif., USA) supplemented with 10% FBS (Life technologies), 50 units/mL penicillin, and 50 µg/mL streptomycin (Life technologies).
# (§1) Wild-type and KCC2-expressing HEK293 cells or NSC-34 were harvested and homogenised in lysis buffer (PBS containing 1% Igepal CA-630, 0.1% SDS, 10 mM sodium pyrophosphate, 10 mM NaF, 10 mM NaVO4, 10 mM iodoacetamide and cocktail protease inhibitors and centrifugated at 18000 g for 30 minutes at 4° C. Protein concentration in supernatants was determined using DC protein assay (Bio-rad). Same amounts of total proteins were separated in 6% or 7% SDS PAGE and transferred onto PVDF membrane. Once blocked in Tris Buffer Saline 0.05% Tween 5% non-fat dry milk, membranes were probes over night at 4° C. with KCC2 antibody (1/1000 dilution, Merck-Millipore, Billerica, Mass., USA), or anti-phospho-serine940 KCC2 (1/1000 dilution, PhosphoSolutions) or anti-Actin antibody (1/500 dilution, Sigma Aldrich). Anti-rabbit secondary antibody HRP conjugated was used for detection in chemiluminescent system (Thermo Scientific, Waltham, Mass., USA). Signal intensity was measured with the image analysis software Image lab (Bio-Rad, Hercules, Calif., USA). […]
# [2] = system: reciprocal inhibition of lumbar MNs; assay: In vitro extracellular recordings and evaluation of reciprocal inhibition after neonatal spinal cord transection; parameters: species or system rat
# From the text: Rats were deeply anesthetized by hypothermia at birth. A dorsal midline skin incision was made over the thoracic vertebra and the overlying fascia and muscles were retracted to expose the dorsal surface of the vertebrae. After a partial laminectomy, the spinal cord was completely transected at the T8 thoracic level with scissors. The lesion cavity was then filled with sterile absorbable local hemostat Surgicoll (Medical Biomaterial Products; Neustadt-Glewe, Germany). The skin incision was closed with sutures (PDSII 6.0, Ethicon; Johnson and Johnson; Brussels, Belgium) and covered by Steri-Strips (3M Health Care; St. Paul, Minn.). The whole surgical procedure took less tan 10 min after anesthesia. Sham-operated rats were treated in the same way except […] the spinal cord transection. Following surgery, the neonates recovered 45 min in a warm environment maintaining the temperature at 35±1° C. Wounds were then cleaned and rats were kept in a warm environment for 40 min before returning to the nest.
# Spinal cords isolated from neonatal rats were prepared as described in section 1.2 until “recording”.
# Extracellular electrophysiological signals of lumbar VRs and DRs responses were recorded by contact stainless steel electrodes insulated from the bath with vaseline. […]
# [3] = system: KCC2; assay: FluxOR fluorescence based thallium (Tl+) influx assay on KCC2-expressing HEK293 cells; type: cell-based; conditions: HEK KCC2 compared to WT HEK cells, non-cytotoxic dose range
# Description: (§2) Wild-type or KCC2-expressing Human Embryonic Kidney (HEK) 293 cells (provided by Prof. Eric Delpire Department of Anesthesiology, Vanderbilt University Medical Center, Nashville, Tenn.) were grown up to 80-90% confluence in DMEM/Ham's F-12 (1:1) (Life technologies, Carlsbad, Calif., USA) supplemented with 10% FBS (Life technologies), 50 units/mL penicillin, and 50 µg/mL streptomycin (Life technologies). KCC2-expressing clones were under puromycin selection (20 μg/ml, Life technologies).
# The FluxOR™ potassium ion channel assay (Life Technologies Carlsbad, Calif., USA) was performed as outlined in the product information sheet and an earlier published study (Delpire et al., 2009, Proc. Natl. Acad. Sci. USA, 106, 5383-88) to assess KCC2 activity, and adapted to semi-automated high throughput screening. The experiment was performed in the presence of ouabain 200 μM and bumetanide 10 μM in all buffers to block the Na^+/K^+ pump and NKCC1 cotransporters, respectively. Briefly, cells in suspension were incubated in the loading buffer containing the dye at room temperature for 90 min (1/2000 dilution of FluxOR reagent) at the density of 100.000 cells/75 μl, then centrifugated and resuspended in Assay buffer at the same cell density. A number of 100.000 cells (75 μl) were manually handled in each well to the 96-wells black-walled, μclear-bottom plates (Greiner Bio-One, Monroe, N.C., USA) and 5 μl of chemical compounds 1-8 at different concentrations in PBS 1% DMSO (5, 30 and 50 μM) were added to the plates using the Biomek® NX Laboratory automation workstation (Beckman Coulter, Villepinte, France). After 15 minutes incubation, baseline fluorescent signal was measured with the Polarstar omega microplate reader (490 nm excitation and 520 nm emission, BMG Labtech). Then 20 μL per well of 5× thallium stimulus buffer (final concentrations: Tl^+: 2 mM, K^+: 10 mM) was injected and fluorescent signal was read 30 minutes later.
# For each plate, 2 columns were dedicated to controls (cell density range from 0.25 to 1.10^5 cells; loading buffer as blank; untreated or treated with NEM (33 μM, for 15 min) wild-type and KCC2-expressing HEK293 cells).
# Baseline fluorescent value was subtracted from the fluorescent value measured 30 min after stimulus buffer injection for each well, and this difference was normalized to the number of cells. […] Values converted to percentages such that the maximum of ratio is 100%.
# [4] = system: KCC2; assay: Western blot of KCC2 in total cell lysate of HEK KCC2 cells; type: cell-based; conditions: 10 μM, 30 min of cell treatment, HEK KCC2 whole cell lysate
# Description: as §2
# as §1, with “Anti-rabbit secondary antibody HRP conjugated was used for detection in chemiluminescent system (Thermo Scientific, Waltham, Mass., USA).” left out
compound,measurement,setting,value
"CN1CCN(CCCN2c3ccccc3Sc3ccc(Cl)cc32)CC1 [compound 2, 2-chloro-10-[3-(4-methyl-1-piperazinyl)propyl]-10H-phenothiazine]",phosphorylated KCC2 on serine 940,[1],increased
same,total KCC2 protein level (monomers+oligomers),[1],increased
same,strength of reciprocal inhibition relative to intact spinal cord,"[2]; 200 μM (so in the source), n=6",inhibition comparable to an intact spinal cord
same,strength of reciprocal inhibition,"[2]; 5, 10 and 20 μM, 20 min after onset of application, P5-7 rats transected at birth",increased the strength of reciprocal inhibition in a dose-dependent manner
same,specific activation of KCC2 across a dose range,[3],activate specifically KCC2 in a dose dependant manner
same,phosphorylated KCC2 on serine 940,[4],increased
same,total KCC2 protein level (monomers+oligomers),[4],increased
